What was measured:
Type in all cases: biochemical
[1] = target: rat MAO-A (Rattus norvegicus (Rat), UniProt P21396); assay: Rat MAO-A assay (Amplex Red fluorescence, rat liver mitochondria); conditions: deprenyl-pretreated, substrate p-tyramine 300 μM
Experimental: (§1) The MAO-A and MAO-B enzyme activity of the compounds, according to the present invention, was estimated following an assay adapted from the method described by Holt et al. (Anal. Biochem. 244, 384-392, 1997). The MAO experiments were performed using a fluorescence-based detection of resorufin, obtained by a reaction of released from the biological sample hydrogen peroxide with 10-acetyl-3,7-dihydroxyphenoxazine (ADHP) in the presence of a peroxidase (horseradish peroxidase-coupled reaction, HRP). The inhibitory in vitro MAO activity of the compounds of general Formula I was investigated at rat and human MAO-A and MAO-B. To perform rat MAO-A and MAO-B experiments, a preliminary membrane preparation of mitochondrial-enriched rat livers isolated from male Sprague-Dawley rats (Harlan Sprague Dawley, Dublin, US) was required. As sources for recombinant human MAO-A and MAO-B enzymes were used microsomal products, prepared from baculovirus-infected insect cells expressing human MAO-A (Sigma-Aldrich, M7316) and human MAO-B (Sigma-Aldrich, M7441), respectively.
(§2) To estimate MAO inhibitory activity of the compounds of Formula I at rat and human MAO-A and MAO-B, the corresponding test compound was dissolved in 100% DMSO and subsequently added to the appropriate enzyme solution containing rat liver mitochondria (rat MAO-A and -B) or recombinant human protein (for determination of human MAO-A and -B) in sodium phosphate buffer. The test sample was incubated for 30 min at room temperature prior to the addition of Amplex Red reagent (Invitrogen A12214) using for the fluorescence-based measuring of MAO inhibitory activity. The enzymatic reaction was started by the addition of the substrate p-tyramine. The fluorescence measurements were performed over a period of 45 min using a microplate fluorescence reader (excitation at 544 nm and emission at 590 nm). IC50 values were determined from the inhibition curves obtained using different inhibitor concentrations in triplicate within the same experiment. A four-parameter logistic equation was used to fit the dose-response curves for test compounds using a computer program.
(§3) MAO-A and MAO-B enzymatic activity of the compounds was measured in 96-well-plates using a continuous fluorescence-based assay. This assay was adapted from the method described by Holt et al. (Anal. Biochem., 244, 384-392, 1997). The MAO experiments were performed using the commercial assay kit Amplex Red (Invitrogen A12214). The kit was stored frozen at ≦−20° C. and protected from light before use. The Amplex Red MAO assay kit was used for the detection of H2O2 released from the biological sample. Subsequently, a reaction of 10-acetyl-3,7-dihydroxyphenoxazine (ADHP, Amplex Red reagent) with H2O2 in the presence of a peroxidase (horse-radish peroxidase-coupled reaction, HRP) led to the production of resorufin. The quantification of hydrogen peroxide released from the biological sample and the subsequent production of resorufin was monitored using a fluorescence microplate reader (Holt et al., Anal. Biochem., 244, 384-392, 1997). To ensure an optimal efficiency of the Amplex Red reagent, the MAO assay's were performed at pH 7.4.
MAO enzyme-containing mitochondrial-enriched fractions of rat were obtained from male Sprague-Dawley rat livers (250-300 g, Harlan Sprague-Dawley, Dublin, Va., US). The livers (10.0 g) were dissected, given into 15.0 mL of an ice-cold 5.0 mM Hepes buffer (pH 7.4), containing 210 mM mannitol, 70 mM sucrose, 0.5 mM ethylene glycoltetraacetic acid (EGTA), and 2.0 mg/mL of bovine serum albumin (BSA), and homogenized using a glass/Teflon potter (10 ups and downs at 1100 rpm). After homogenization, the volume is adjusted to 100 mL with the same buffer. After a low speed centrifugation (10 min at 600 g; 4° C.), the supernatant was further centrifuged at 15,000 rpm for 5 min at +4° C. […]

[2] = target: human MAO-A (Homo sapiens (Human), UniProt P21397); assay: Human MAO-A assay (Amplex Red fluorescence, recombinant enzyme); conditions: substrate p-tyramine 150 μM
human MAO-A, sequence (P21397 whole entry): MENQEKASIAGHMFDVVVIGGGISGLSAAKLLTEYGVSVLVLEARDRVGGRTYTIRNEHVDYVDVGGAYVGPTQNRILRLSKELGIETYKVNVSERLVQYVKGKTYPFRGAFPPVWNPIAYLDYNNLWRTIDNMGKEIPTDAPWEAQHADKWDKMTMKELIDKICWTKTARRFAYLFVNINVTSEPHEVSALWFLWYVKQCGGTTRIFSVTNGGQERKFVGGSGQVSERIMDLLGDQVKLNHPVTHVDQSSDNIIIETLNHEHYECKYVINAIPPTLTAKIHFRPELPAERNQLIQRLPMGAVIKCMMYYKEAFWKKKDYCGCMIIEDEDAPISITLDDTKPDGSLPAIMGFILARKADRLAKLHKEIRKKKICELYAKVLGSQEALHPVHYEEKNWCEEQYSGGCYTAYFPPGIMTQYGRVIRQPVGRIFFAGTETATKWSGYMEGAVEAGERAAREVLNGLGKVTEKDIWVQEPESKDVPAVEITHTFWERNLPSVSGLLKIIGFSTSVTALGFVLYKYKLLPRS
Experimental: as §1, §2, §3
Recombinant human MAO-A enzyme, expressed in baculovirus-infected insect cells, was purchased from Sigma-Aldrich (M7316). The assay was carried out in 96-well plates in a final volume of 200 μL at room temperature. According to the experiment protocol, a solution of test compound (2.0 μL) in DMSO (100%) was added to 90.0 μL of protein solution (0.3 μg prot/well, containing 6.6 μL protein and […] phosphate buffer) and incubated for 30 min prior to the addition of 90 μL of freshly prepared Amplex Red reagent. The Amplex Red reagent was prepared as described for rat MAO-A. The enzymatic reaction was started by the addition of 20.0 μL/well of an aqueous solution of the substrate p-tyramine (150 μM final concentration). […]

[3] = target: rat MAO-B (Rattus norvegicus (Rat), UniProt P19643); assay: Rat MAO-B assay (Amplex Red fluorescence, rat liver mitochondria); conditions: clorgyline-pretreated, substrate p-tyramine
rat MAO-B, sequence (P19643 whole entry): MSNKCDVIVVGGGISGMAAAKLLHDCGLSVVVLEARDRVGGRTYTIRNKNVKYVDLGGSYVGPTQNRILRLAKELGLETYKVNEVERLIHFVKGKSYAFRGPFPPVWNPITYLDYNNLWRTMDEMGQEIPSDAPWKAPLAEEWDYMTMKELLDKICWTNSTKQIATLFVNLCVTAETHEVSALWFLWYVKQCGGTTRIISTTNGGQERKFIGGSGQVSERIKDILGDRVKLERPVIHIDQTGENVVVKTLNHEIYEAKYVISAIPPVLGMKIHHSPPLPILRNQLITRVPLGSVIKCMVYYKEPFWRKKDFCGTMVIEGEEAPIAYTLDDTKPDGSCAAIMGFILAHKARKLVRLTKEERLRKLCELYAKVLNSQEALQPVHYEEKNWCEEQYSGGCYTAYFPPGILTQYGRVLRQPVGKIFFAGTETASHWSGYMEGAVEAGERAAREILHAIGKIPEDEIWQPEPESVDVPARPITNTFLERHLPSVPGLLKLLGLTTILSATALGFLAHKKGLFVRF
Experimental: (§4) To estimate MAO inhibitory activity of the compounds of Formula I at rat and human MAO-A and MAO-B, the corresponding test compound was dissolved in 100% DMSO and subsequently added to the appropriate enzyme solution containing rat liver mitochondria (rat MAO-A and -B) or recombinant human protein (for determination of human MAO-A and -B) in sodium phosphate buffer. The test sample was incubated for 30 min at room temperature prior to the addition of Amplex Red reagent (Invitrogen A12214) using for the fluorescence-based measuring of MAO inhibitory activity. The enzymatic reaction was started by the addition of the substrate p-tyramine. […] IC50 values were determined from the inhibition curves obtained using different inhibitor concentrations in triplicate within the same experiment. A four-parameter logistic equation was used to fit the dose-response curves for test compounds using a computer program.
MAO enzyme-containing mitochondrial-enriched fractions of rat were obtained from male Sprague-Dawley rat livers (250-300 g, Harlan Sprague-Dawley, Dublin, Va., US). The livers (10.0 g) were dissected, given into 15.0 mL of an ice-cold 5.0 mM Hepes buffer (pH 7.4), containing 210 mM mannitol, 70 mM sucrose, 0.5 mM ethylene glycoltetraacetic acid (EGTA), and 2.0 mg/mL of bovine serum albumin (BSA), and homogenized using a glass/Teflon potter (10 ups and downs at 1100 rpm). After homogenization, the volume is adjusted to 100 mL with the same buffer. After a low speed centrifugation (10 min at 600 g; 4° C.), the supernatant was further centrifuged at 15,000 rpm for 5 min at +4° C. The resulting pellet was resuspended in 2.0 mL of a 50 mM sodium phosphate buffer (pH 7.4) and stored at −80° C. in aliquots of 1.0 mL until further use.
Assays were performed in 96-well plates in a final volume of 200 μL at room temperature. […] Test compounds (2.0 μL), dissolved in DMSO (100%), were added to 90.0 μL of mitochondrial preparation (25.0 μg prot) and incubated for 30 min prior to the addition of 90 μL of freshly prepared Amplex Red reagent, prepared as recommended in the kit from Invitrogen (A12214). For a 96-well plate, 1.0 mg of Amplex Red, dissolved in 200 μL of DMSO (100%) and 100 μL of reconstituted horse-radish peroxidase (HRP 200 U/mL, Sigma Aldrich P6782) stock solution (kit vial+1.0 mL of sodium phosphate buffer) were added to 9700 μL of sodium phosphate buffer (250 mM at pH 7.4).

[4] = target: human MAO-B (Homo sapiens (Human), UniProt P27338); assay: Human MAO-B assay (Amplex Red fluorescence, recombinant enzyme); conditions: substrate p-tyramine
human MAO-B, sequence (P27338 whole entry): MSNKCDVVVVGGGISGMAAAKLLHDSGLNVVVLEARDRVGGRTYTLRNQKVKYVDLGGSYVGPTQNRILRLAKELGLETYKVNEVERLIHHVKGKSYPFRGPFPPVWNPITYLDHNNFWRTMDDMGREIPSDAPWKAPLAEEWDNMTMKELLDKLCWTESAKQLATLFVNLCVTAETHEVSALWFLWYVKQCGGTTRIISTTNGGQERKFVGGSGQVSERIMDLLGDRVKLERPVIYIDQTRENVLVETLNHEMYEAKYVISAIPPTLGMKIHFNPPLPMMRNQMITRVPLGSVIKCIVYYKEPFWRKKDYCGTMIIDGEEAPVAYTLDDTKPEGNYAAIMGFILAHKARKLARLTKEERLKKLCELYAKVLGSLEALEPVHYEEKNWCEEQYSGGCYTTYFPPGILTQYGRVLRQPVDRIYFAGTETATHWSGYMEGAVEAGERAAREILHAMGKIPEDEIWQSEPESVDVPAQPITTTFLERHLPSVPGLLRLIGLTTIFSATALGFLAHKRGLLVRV
Experimental: as §4
MAO-A and MAO-B enzymatic activity of the compounds was measured in 96-well-plates using a continuous fluorescence-based assay. […] The MAO experiments were performed using the commercial assay kit Amplex Red (Invitrogen A12214). The kit was stored frozen at ≦−20° C. and protected from light before use. The Amplex Red MAO assay kit was used for the detection of H2O2 released from the biological sample. Subsequently, a reaction of 10-acetyl-3,7-dihydroxyphenoxazine (ADHP, Amplex Red reagent) with H2O2 in the presence of a peroxidase (horse-radish peroxidase-coupled reaction, HRP) led to the production of resorufin. […] To ensure an optimal efficiency of the Amplex Red reagent, the MAO assay's were performed at pH 7.4.
The assay was carried out in 96-well plates in a final volume of 200 μL at room temperature. According to the experiment protocol, a solution of test compound (2.0 μL) in DMSO (100%) was added to 90.0 μL of protein solution (0.3 μg prot/well, containing 6.6 μL protein and 9.993 μL phosphate buffer) and incubated for 30 min prior to the addition of 90 μL of freshly prepared Amplex Red reagent. […] The p-tyramine solution was prepared from p-tyramine hydrochloride (45 μL) in water (100 mM) and phosphate buffer (2955 μL). […] DMSO (2.0 μL) was used as a negative control.
Recombinant human MAO-B enzyme, expressed in baculovirus-infected insect cells, was purchased from Sigma-Aldrich (M7441).

rat MAO-A, sequence (P21396 whole entry): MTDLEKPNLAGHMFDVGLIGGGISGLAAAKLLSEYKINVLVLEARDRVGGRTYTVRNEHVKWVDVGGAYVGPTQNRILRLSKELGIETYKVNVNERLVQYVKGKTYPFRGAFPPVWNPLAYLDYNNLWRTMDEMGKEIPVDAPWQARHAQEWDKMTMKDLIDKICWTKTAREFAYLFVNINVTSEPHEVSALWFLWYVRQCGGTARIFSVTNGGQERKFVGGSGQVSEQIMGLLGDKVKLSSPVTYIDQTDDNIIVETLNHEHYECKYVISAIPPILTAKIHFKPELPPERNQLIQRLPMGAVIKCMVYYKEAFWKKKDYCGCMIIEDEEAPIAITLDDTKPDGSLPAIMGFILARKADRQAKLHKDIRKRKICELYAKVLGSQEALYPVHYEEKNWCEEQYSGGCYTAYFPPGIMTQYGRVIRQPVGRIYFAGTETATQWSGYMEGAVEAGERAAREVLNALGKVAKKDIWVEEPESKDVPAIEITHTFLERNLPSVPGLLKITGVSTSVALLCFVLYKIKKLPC

Row | IC50 [1] [nM] | IC50 [2] [nM] | IC50 [3] [nM] | IC50 [4] [nM] | SMILES
1 | > 10000 | > 10000 | – | – | O=C(Nc1ccc2[nH]ccc2n1)c1ccc(Cl)c(Cl)c1 [Example 1, 3,4-dichloro-N-(1H-pyrrolo[3,2-b]pyridin-5-yl)benzamide]
2 | > 10000 | > 10000 | 4.9 ± 0.33 | 3.27 ± 0.04 | O=C(Nc1ccc2[nH]ccc2n1)c1ccc(F)c(Cl)c1 [Example 2, 3-chloro-4-fluoro-N-(1H-pyrrolo[3,2-b]pyridin-5-yl)benzamide]
3 | > 10000 | > 10000 | 85.5 ± 5.8 | 10.9 ± 0.75 | O=C(Nc1ccc2[nH]ccc2n1)c1ccc(Cl)c(F)c1 [Example 3, 4-chloro-3-fluoro-N-(1H-pyrrolo[3,2-b]pyridin-5-yl)benzamide]
4 | > 10000 | > 10000 | 153 ± 11 | 46.1 ± 1.5 | O=C(Nc1ccc2[nH]ccc2n1)c1ccc(F)c(F)c1 [Example 4, 3,4-difluoro-N-(1H-pyrrolo[3,2-b]pyridin-5-yl)benzamide]
5 | > 10000 | > 10000 | 246 ± 53 | 27.5 ± 2 | O=C(Nc1ccc2c(ccn2C(=O)c2ccc(Cl)c(F)c2)n1)c1ccc(Cl)c(F)c1 [Example 5, 4-chloro-N-(1-(4-chloro-3-fluorobenzoyl)-1H-pyrrolo[3,2-b]pyridin-5-yl)-3-fluorobenzamide]
6 | < 10000 | < 10000 | 158 ± 16 | 72 ± 2.6 | O=C(Nc1cc2cc[nH]c2cn1)c1ccc(F)c(Cl)c1 [Example 7, 3-chloro-4-fluoro-N-(1H-pyrrolo[2,3-c]pyridin-5-yl)benzamide]
7 | > 10000 | > 10000 | – | 277 ± 12 | O=C(Nc1cc2cc[nH]c2cn1)c1ccc(F)c(F)c1 [Example 8, 3,4-difluoro-N-(1H-pyrrolo[2,3-c]pyridin-5-yl)benzamide]

Row | SMILES | IC50 [1] [nM] | IC50 [2] [nM] | IC50 [3] [nM] | IC50 [4] [nM]
8 | O=C(Nc1cc2cc[nH]c2cn1)c1ccc(Cl)c(Cl)c1 [Example 6, 3,4-dichloro-N-(1H-pyrrolo[2,3-c]pyridin-5-yl)benzamide] | ≥ 10000 | < 10000 | 224 ± 17 | 28.5 ± 2.4
